Our source for the IC50 values is patent US20150252022A1, “RETINOIC ACID RECEPTOR-RELATED ORPHAN RECEPTOR MODULATORS AND USES THEREOF” (INNOV17 LLC, priority 2014, published 2015).

Assay type in all cases: cell-based
Common to all, as to conditions: 72 h; human CD4+ T cells under TH17-polarizing conditions, 3 days, supernatant ELISA

Test [1] has as its system IL-17A. Kind of test: Human TH17 Cytokine Inhibition as measured by ELISA (IL-17A). How it is done:
(§1) Peripheral blood mononuclear cells (PBMCs) were sourced from freshly prepared leukocyte enriched plasma (buffy coat) from healthy donors (New York Blood Center). PBMCs were isolated by density gradient centrifugation using Ficoll-Paque™ PLUS (GE Healthcare). Human CD4+ T cells were seeded into 96-well plates (5×10^4 cells/well) and activated with plate-bound anti-human (h)-CD3 antibody and soluble h-aCD28 (both at 1 ug/ml; eBioscience) and differentiated into TH17 cells with 20 ng/mL h-IL-6, 5 ng/mL h-TGF-β1, 10 ng/mL h-IL-23 (eBioscience) and 10 ng/mL IL-1β (Miltenyi Biotec) in serum-free TexMACS Medium (Miltenyi Biotec) supplemented with 1% Penicillin/Streptomycin (Lonza) for 3 days. CD4+ T cells propagated under TH17-polarizing conditions were cultured in the presence or absence of various concentrations of compounds with a final concentration of 0.1% DMSO. Supernatants were collected and stored at −20° C. until assayed for IL-17A, IL-17F and IL-21 levels by “Ready-Set-Go” ELISA kits (eBioscience) as per manufacturer's instructions. Endpoint absorbance was read at 450 nm using a microplate reader (Perkin Elmer).
Background: ELISA stands for enzyme-linked immunosorbent assay.

Test [2] concerns IL-17F. Kind of test: Human TH17 Cytokine Inhibition as measured by ELISA (IL-17F). The protocol: as §1
The subject of test [3] is IL-21. Kind of test: Human TH17 Cytokine Inhibition as measured by ELISA (IL-21). The protocol:
as §1

Structures are written as SMILES.

In the case of `O=C(c1ccccc1)N1CCC(Cn2ccc3cc(-c4cn[nH]n4)ccc32)CC1` [Example 130, (4-((5-(2H-1,2,3-triazol-4-yl)-1H-indol-1-yl)methyl)piperidin-1-yl)(phenyl)methanone], the IC50 in test [1] and in test [2] was under 10 µM throughout.

As to `CC(C)C(=O)N1CCC(CN2CCc3cc(-c4cn[nH]c4)ccc32)C1` (centres unmarked) [Example 15, 1-(3-((5-(1H-pyrazol-4-yl)indolin-1-yl)methyl)pyrrolidin-1-yl)-2-methylpropan-1-one], the 50% inhibitory concentration (IC50) in test [1] is over 10 µM; in test [3] it was under 10 µM; in test [2], over 10 µM.

Consider `CC1(C)CC(Cn2ccc3cc(-c4cn[nH]c4)ccc32)CN1C(=O)CCc1ccccc1` (centres unmarked) [Example 110], for which the IC50 in test [1], in test [3] and in test [2] was under 10 µM each time.

As to `CC(C)C(=O)N1CCC(CN2CCc3cc(-c4cn[nH]c4)ccc32)CC1` [Example 45, 1-(4-((5-(1H-pyrazol-4-yl)indolin-1-yl)methyl)piperidin-1-yl)-2-methylpropan-1-one], the 50% inhibitory concentration (IC50) in test [1], in test [3] and in test [2] was over 10 µM in each case.

Take `O=C(CC1CCCCC1)N1CCC(CN2CCc3cc(-c4cn[nH]c4)ccc32)CC1` [Example 43, 1-(4-((5-(1H-pyrazol-4-yl)indolin-1-yl)methyl)piperidin-1-yl)-2-cyclohexylethanone]: the IC50 in test [1], in test [3] and in test [2] was under 10 µM throughout.

As for `O=C(CCc1ccccc1)N1CCC(Cn2ccc3cc(-c4cnccn4)ccc32)CC1` [Example 121], the half-maximal inhibitory concentration (IC50) in test [1], in test [3] and in test [2] was under 10 µM each time.

For the compound `O=C(COc1ccccc1)N1CCC(Cn2ccc3cc(-c4cn[nH]c4)ccc32)CC1` [Example 92, 1-(4-((5-(1H-pyrazol-4-yl)-1H-indol-1-yl)methyl)piperidin-1-yl)-2-phenoxyethanone], the IC50 in test [1], in test [3] and in test [2] was under 10 µM throughout.

`O=C(C1CCCCC1)N1CCC(CN2CCc3cc(-c4cn[nH]c4)ccc32)CC1` [Example 42, (4-((5-(1H-pyrazol-4-yl)indolin-1-yl)methyl)piperidin-1-yl)(cyclohexyl)methanone]: the IC50 in test [1], in test [3] and in test [2] was under 10 µM throughout.

Turning to `CC(C)CC(=O)N1CCCC(Cn2ccc3cc(-c4cn[nH]c4)ccc32)CC1` (centres unmarked) [Example 59, 1-(4-((5-(1H-pyrazol-4-yl)-1H-indol-1-yl)methyl)azepan-1-yl)-3-methylbutan-1-one], the values for the half-inhibitory concentration (IC50) in test [1], in test [3] and in test [2] were under 10 µM, over 10 µM and under 10 µM, respectively.

Regarding `Cc1ncc(-c2ccc3c(ccn3CC3CCN(C(=O)CCc4ccccc4)CC3)c2)s1` [Example 120, 1-(4-((5-(2-methylthiazol-5-yl)-1H-indol-1-yl)methyl)piperidin-1-yl)-3-phenylpropan-1-one], the concentration for half-maximal inhibition (IC50) in test [1], in test [3] and in test [2] was under 10 µM in each case.

With `O=C(CCc1ccc(F)cc1)N1CCC(Cn2ccc3cc(-c4cn[nH]c4)ccc32)CC1` [Example 93, 1-(4-((5-(1H-pyrazol-4-yl)-1H-indol-1-yl)methyl)piperidin-1-yl)-3-(4-fluorophenyl)propan-1-one], the half-inhibitory concentration (IC50) in test [1], in test [3] and in test [2] was under 10 µM in each case.

With `Cn1cc(-c2ccc3c(ccn3CC3CCN(C(=O)CCc4ccccc4)CC3)c2)nn1` [Example 113, 1-(4-((5-(1-methyl-1H-1,2,3-triazol-4-yl)-1H-indol-1-yl)methyl)piperidin-1-yl)-3-phenylpropan-1-one], the half-inhibitory concentration (IC50) in test [1], in test [3] and in test [2] was under 10 µM throughout.

Take `O=C(CCCc1ccccc1)N1CCC(CN2CCCc3cc(-c4cn[nH]c4)ccc32)CC1` [Example 103, 1-(4-((6-(1H-pyrazol-4-yl)-3,4-dihydroquinolin-1(2H)-yl)methyl)piperidin-1-yl)-4-phenylbutan-1-one]: the IC50 is under 10 µM in test [1], over 10 µM in test [3] and under 10 µM in test [2].

On to `CC(C)CC(=O)N1CC(CN2CCc3cc(-c4cn[nH]c4)ccc32)CC1C` (centres unmarked) [Example 29, 1-(4-((5-(1H-pyrazol-4-yl)indolin-1-yl)methyl)-2-methylpyrrolidin-1-yl)-3-methylbutan-1-one], for which the IC50 in test [1], in test [3] and in test [2] was under 10 µM in each case.

Take `CC(C)CC(=O)N1CCC(CN2CCc3cc(-c4cn[nH]c4)ccc32)C1` (centres unmarked) [Example 14, 1-(3-((5-(1H-pyrazol-4-yl)indolin-1-yl)methyl)pyrrolidin-1-yl)-3-methylbutan-1-one]: the half-inhibitory concentration (IC50) is under 10 µM in test [1], over 10 µM in test [3] and under 10 µM in test [2].

For the compound `O=C(Cc1ccccc1)N1CCCC(CN2CCc3cc(-c4cn[nH]c4)ccc32)CC1` (centres unmarked) [Example 55, 1-(4-((5-(1H-pyrazol-4-yl)indolin-1-yl)methyl)azepan-1-yl)-2-phenylethanone], the IC50 in test [1], in test [3] and in test [2] was under 10 µM throughout.

With `Cc1cc2cc(-c3cn[nH]c3)ccc2n1CC1CC(C)N(C(=O)CCc2ccccc2)C1` (racemic) [Example 131, rac-1-(2-methyl-4-((2-methyl-5-(1H-pyrazol-4-yl)-1H-indol-1-yl)methyl)pyrrolidin-1-yl)-3-phenylpropan-1-one], the half-maximal inhibitory concentration (IC50) in test [1], in test [3] and in test [2] was under 10 µM each time.

Take `O=C(CCc1ccccn1)N1CCC(Cn2ccc3cc(-c4cn[nH]c4)ccc32)CC1` [Example 91, 1-(4-((5-(1H-pyrazol-4-yl)-1H-indol-1-yl)methyl)piperidin-1-yl)-3-(pyridin-2-yl)propan-1-one]: the IC50 in test [1], in test [3] and in test [2] was under 10 µM throughout.

Turning to `O=C(CCc1ccccc1)N1CCC(CN2CCc3cc(-c4cn[nH]c4)ccc32)CC1` [Example 41, 1-(4-((5-(1H-pyrazol-4-yl)indolin-1-yl)methyl)piperidin-1-yl)-3-phenylpropan-1-one], the half-maximal inhibitory concentration (IC50) in test [1], in test [3] and in test [2] was under 10 µM throughout.

On to `O=C(CC1CCCCC1)N1CCC(CN2CCCc3cc(-c4cn[nH]c4)ccc32)CC1` [Example 99, 1-(4-((6-(1H-pyrazol-4-yl)-3,4-dihydroquinolin-1(2H)-yl)methyl)piperidin-1-yl)-2-cyclohexylethanone], for which the values for the IC50 in test [1], in test [3] and in test [2] were under 10 µM, over 10 µM and under 10 µM, respectively.

Take `C[C@H]1C[C@@H](Cn2ccc3cc(-c4cn[nH]c4)ccc32)CN1C(=O)CCc1ccccc1` (relative stereo) [Example 127, cis-1-(4-((5-(1H-pyrazol-4-yl)-1H-indol-1-yl)methyl)-2-methylpyrrolidin-1-yl)-3-phenylpropan-1-one]: the IC50 in test [1], in test [3] and in test [2] was under 10 µM throughout.

Turning to `Cc1ccncc1-c1ccc2c(ccn2CC2CCN(C(=O)CCc3ccccc3)CC2)c1` [Example 123], the half-inhibitory concentration (IC50) in test [1], in test [3] and in test [2] was under 10 µM each time.

Regarding `O=C(C1CCCCC1)N1CCCC(Cn2ccc3cc(-c4cn[nH]c4)ccc32)CC1` (centres unmarked) [Example 58, (4-((5-(1H-pyrazol-4-yl)-1H-indol-1-yl)methyl)azepan-1-yl)(cyclohexyl)methanone], the 50% inhibitory concentration (IC50) in test [1], in test [3] and in test [2] was under 10 µM throughout.

Take `CC(C)C(=O)N1CC(CN2CCc3cc(-c4cn[nH]c4)ccc32)CC1C` (centres unmarked) [Example 30, 1-(4-((5-(1H-pyrazol-4-yl)indolin-1-yl)methyl)-2-methylpyrrolidin-1-yl)-2-methylpropan-1-one]: the half-maximal inhibitory concentration (IC50) in test [1], in test [3] and in test [2] was under 10 µM in each case.

For `O=C(CCc1ccccc1)N1CCC(CN2CCCc3cc(-c4cn[nH]c4)ccc32)CC1` [Example 98, 1-(4-((6-(1H-pyrazol-4-yl)-3,4-dihydroquinolin-1(2H)-yl)methyl)piperidin-1-yl)-3-phenylpropan-1-one], the IC50 in test [1], in test [3] and in test [2] was under 10 µM in each case.

In the case of `CC1CC(CN2CCc3cc(-c4cn[nH]c4)ccc32)CN1C(=O)C1CCCCC1` (centres unmarked) [Example 27, (4-((5-(1H-pyrazol-4-yl)indolin-1-yl)methyl)-2-methylpyrrolidin-1-yl)(cyclohexyl)methanone], the IC50 in test [1], in test [3] and in test [2] was under 10 µM throughout.

Take `O=C(Cc1ccccc1)N1CCC(CN2CCCc3cc(-c4cn[nH]c4)ccc32)CC1` [Example 102, 1-(4-((6-(1H-pyrazol-4-yl)-3,4-dihydroquinolin-1(2H)-yl)methyl)piperidin-1-yl)-2-phenylethanone]: the IC50 in test [1] was under 10 µM; in test [3], over 10 µM; in test [2], under 10 µM.

On to `NC(=O)Cn1cc(-c2ccc3c(ccn3CC3CCN(C(=O)CCc4ccccc4)CC3)c2)cn1` [Example 119, 2-(4-(1-((1-(3-phenylpropanoyl)piperidin-4-yl)methyl)-1H-indol-5-yl)-1H-pyrazol-1-yl)acetamide], for which the results for the half-maximal inhibitory concentration (IC50) in test [1], in test [3] and in test [2] were over 10 µM, under 10 µM and over 10 µM, respectively.

For orientation: IC50 means the concentration that inhibits the measured activity by half. A high value points to weaker potency in that assay.
